In test [1] the test system is HCT-116. In words: Cytotoxicity against human HCT116 cells assessed as reduction in cell viability after 48 hrs by MTT assay. The settings on record: HCT-116, 48 h. The test is classed as functional, cell-based. Background: Tetrazolium assays rely on reduction of a dye to a coloured formazan, in cell work by metabolically active cells.
For test [2], the system named is HCT-116. In words: Induction of apoptosis in human HCT116 cells assessed as early apoptotic cells at 50 uM after 48 hrs by Annexin-V/propidium iodide staining-based flow cytometric analysis (reference value: 4.2%). Type of test: functional.
Test [3] relates to HCT-116. The test can be described thus: Induction of apoptosis in human HCT116 cells assessed as early apoptotic cells at 10 uM after 48 hrs by Annexin-V/propidium iodide staining-based flow cytometric analysis (reference value: 4.2%). Type of test: functional.
For test [4], the system named is HCT-116. In words: Induction of apoptosis in human HCT116 cells assessed as late apoptotic cells at 50 uM after 48 hrs by Annexin-V/propidium iodide staining-based flow cytometric analysis (reference value: 9.3%). The test is classed as functional. For orientation: In flow cytometry, cells or beads pass a laser one at a time.
Test [5] relates to HCT-116. In words: Induction of apoptosis in human HCT116 cells assessed as increase in cleaved caspase-9 protein expression after 48 hrs by Western blot analysis. The test is classed as functional, cell-based. Background: A western blot detects proteins with antibodies after separation by electrophoresis.
Test [6] deals with HCT-116. The test can be described thus: Induction of morphological changes in human HCT116 cells assessed as cell rounding and shrinkage. Type of test: functional, cell-based.
Test [7] deals with HCT-116. In words: Induction of apoptosis in human HCT116 cells assessed as late apoptotic cells at 10 uM after 48 hrs by Annexin-V/propidium iodide staining-based flow cytometric analysis (reference value: 9.3%). The test is classed as functional.
In test [8] the test system is HCT-116. The test can be described thus: Induction of apoptosis in human HCT116 cells assessed as increase in caspase-9 protein expression after 48 hrs by Western blot analysis. Type of test: functional, cell-based.

Calls of active or inactive are those of the source. The rule behind the calls is not given here.

In general, IC50 refers to the concentration that gives 50% inhibition. In the case of `O=c1[nH]cc(F)c(=O)[nH]1` [FLUOROURACIL], in the test with HCT-116 [1], the concentration for half-maximal inhibition (IC50) came out at 41.9 µM.

On to `Cc1cc2c(c(C)c1CCO)C(=O)[C@@H](C)[C@@H]2O[C@@H]1O[C@H](COC(=O)/C=C/c2ccc(O)cc2)[C@@H](O)[C@H](O)[C@H]1O`, for which the half-inhibitory concentration (IC50) in the test on HCT-116 [1] was 17.2 µM.

Consider `Cc1cc2c(c(CO)c1CCO[C@@H]1O[C@H](CO)[C@@H](O)[C@H](O)[C@H]1O)C(=O)C(C)(C)[C@@H]2O`, for which the concentration for half-maximal inhibition (IC50) in the test on HCT-116 [1] amounted to 81.2 µM.

As to `Cc1cc2c(c(C)c1CCO)C(=O)[C@H](C)C2`, the IC50 in the test on HCT-116 [1] was 50.1 µM.

`Cc1cc2c(c(CO)c1CCO)C(=O)C(C)(C)[C@@H]2O`: the IC50 with HCT-116 [1] came to 120 µM.

Regarding `Cc1cc2c(c(C)c1CCO)C(=O)C(C)(C)[C@@H]2O`, the IC50 in the test with HCT-116 [1] turned out to be 184 µM.

As to `Cc1cc2c(c(C)c1CCO)C(=O)[C@@H](C)[C@@H]2O`, the IC50 in the test on HCT-116 [1] came out at 72.9 µM.

For `Cc1cc2c(c(C)c1CCO)C(=O)[C@H](C)[C@@H]2O`, the IC50 in the test on HCT-116 [1] worked out at 253 µM.

On to `CO[C@@H]1c2cc(C)c(CCO)c(C)c2C(=O)[C@H]1C`, for which the half-maximal inhibitory concentration (IC50) in the test on HCT-116 [1] was 79.4 µM.

With `Cc1cc2c(c(C)c1CCO)C(=O)[C@@H](C)[C@@H]2O[C@@H]1O[C@H](CO)[C@@H](O)[C@H](O)[C@H]1O`, in the test on HCT-116 [1], the 50% inhibitory concentration (IC50) was found to be 32.9 µM.

Take `Cc1cc2c(c(C)c1CCO[C@@H]1O[C@H](CO)[C@@H](O)[C@H](O)[C@H]1O)C(=O)[C@H](C)C2`: the IC50 in the test with HCT-116 [1] is 80.7 µM.

On to `Cc1cc2c(c(C)c1CCO)C(=O)[C@@H](C)[C@@H]2O[C@@H]1O[C@H](CO)[C@@H](OC(=O)/C=C/c2ccc(O)c(O)c2)[C@H](O)[C@H]1O`, for which the Activity in the test with HCT-116 [2] was 17.1%; with HCT-116 [3], 6.2%; with HCT-116 [4], 31.6%; with HCT-116 [5], “Dose-dependent effect”; in the test on HCT-116 [7], 20.9%; in the test on HCT-116 [8] it was “Dose-dependent effect”. In addition, in the test with HCT-116 [1], the IC50 was found to be 8 µM. Moreover, in the test with HCT-116 [6], the outcome was Active.

Consider `Cc1cc2c(c(C)c1CCO)C(=O)[C@](C)(CO)[C@@H]2O`, for which the IC50 in the test with HCT-116 [1] was determined as 106 µM.

(Values after ChEMBL document CHEMBL4020783, “Cytotoxic pterosins from Pteris multifida roots against HCT116 human colon cancer cells” (Bioorg Med Chem Lett, 2017).)
